Source: ChEMBL document CHEMBL5303573, “Mapping human microbiome drug metabolism by gut bacteria and their genes” (Nature, 2019)

Key:
[1] = akkermansia muciniphila, 12 h, 2 µM
Description: The drug is tested on Akkermansia muciniphila strain: ATCC BAA-835 for biotransformation. The drug concentrations were measured before and after a 12-h incubation by liquid-chromatography-coupled mass spectrometry (LC–MS)

[2] = The drug is tested on Coprococcus comes strain: ATCC27758 for biotransformation. The drug concentrations were measured before and after a 12-h incubation by liquid-chromatography-coupled mass spectrometry (LC–MS); assay type: ADME; parameters: dose 2 uM, timepoint 0 vs 12 hours; details: 2 µM
[3] = limosilactobacillus reuteri cf48-3a, 12 h, 2 µM
Description: The drug is tested on Lactobacillus reuteri CF48-3A strain: BEI HM-102 for biotransformation. The drug concentrations were measured before and after a 12-h incubation by liquid-chromatography-coupled mass spectrometry (LC–MS)

[4] = bacteroides thetaiotaomicron, 12 h, 2 µM
Description: The drug is tested on Bacteroides thetaiotaomicron strain: 7330 for biotransformation. The drug concentrations were measured before and after a 12-h incubation by liquid-chromatography-coupled mass spectrometry (LC–MS)

[5] = The drug is tested on Collinsella intestinalis strain: DSM13280 for biotransformation. The drug concentrations were measured before and after a 12-h incubation by liquid-chromatography-coupled mass spectrometry (LC–MS); details: 2 µM
[6] = The drug is tested on Ruminococcus gnavus strain: ATCC29149 for biotransformation. The drug concentrations were measured before and after a 12-h incubation by liquid-chromatography-coupled mass spectrometry (LC–MS); details: mediterraneibacter gnavus, 2 µM
[7] = The drug is tested on Clostridium sporogenes strain: ATCC15579 for biotransformation. The drug concentrations were measured before and after a 12-h incubation by liquid-chromatography-coupled mass spectrometry (LC–MS); details: 2 µM
[8] = The drug is tested on Anaerococcus hydrogenalis strain: DSM7454 for biotransformation. The drug concentrations were measured before and after a 12-h incubation by liquid-chromatography-coupled mass spectrometry (LC–MS); details: 2 µM
[9] = The drug is tested on Bacteroides finegoldii strain: DSM17565 for biotransformation. The drug concentrations were measured before and after a 12-h incubation by liquid-chromatography-coupled mass spectrometry (LC–MS); details: 2 µM
[10] = The drug is tested on Clostridium asparagiforme strain: DSM15981 for biotransformation. The drug concentrations were measured before and after a 12-h incubation by liquid-chromatography-coupled mass spectrometry (LC–MS); assay type: ADME; parameters: dose 2 uM, timepoint 0 vs 12 hours; details: enterocloster asparagiformis, 2 µM
[11] = bacteroides stercoris, 12 h, 2 µM
Description: The drug is tested on Bacteroides stercoris strain: ATCC43183 for biotransformation. The drug concentrations were measured before and after a 12-h incubation by liquid-chromatography-coupled mass spectrometry (LC–MS)

[12] = The drug is tested on Blautia luti strain: DSM14534 for biotransformation. The drug concentrations were measured before and after a 12-h incubation by liquid-chromatography-coupled mass spectrometry (LC–MS); assay type: ADME; parameters: dose 2 uM, timepoint 0 vs 12 hours; details: 2 µM
[13] = The drug is tested on Dorea formicigenerans strain: ATCC27755 for biotransformation. The drug concentrations were measured before and after a 12-h incubation by liquid-chromatography-coupled mass spectrometry (LC–MS); details: 2 µM
[14] = bacteroides intestinalis, 12 h, 2 µM
Description: The drug is tested on Bacteroides intestinalis strain: DSM17393 for biotransformation. The drug concentrations were measured before and after a 12-h incubation by liquid-chromatography-coupled mass spectrometry (LC–MS)

[15] = segatella copri, 12 h, 2 µM
Description: The drug is tested on Prevotella copri strain: DSM18205 for biotransformation. The drug concentrations were measured before and after a 12-h incubation by liquid-chromatography-coupled mass spectrometry (LC–MS)

[16] = The drug is tested on Bacteroides coprophilus strain: DSM18228 for biotransformation. The drug concentrations were measured before and after a 12-h incubation by liquid-chromatography-coupled mass spectrometry (LC–MS); details: 2 µM
[17] = roseburia intestinalis, 12 h, 2 µM
Description: The drug is tested on Roseburia intestinalis strain: L1-82 for biotransformation. The drug concentrations were measured before and after a 12-h incubation by liquid-chromatography-coupled mass spectrometry (LC–MS)

[18] = The drug is tested on Bacteroides fragilis strain: HMW610 for biotransformation. The drug concentrations were measured before and after a 12-h incubation by liquid-chromatography-coupled mass spectrometry (LC–MS); details: 2 µM
[19] = The drug is tested on Eubacterium ventriosum strain: ATCC27560 for biotransformation. The drug concentrations were measured before and after a 12-h incubation by liquid-chromatography-coupled mass spectrometry (LC–MS); assay type: ADME; parameters: dose 2 uM, timepoint 0 vs 12 hours; details: 2 µM
[20] = The drug is tested on Subdoligranulum variabile strain: DSM15176 for biotransformation. The drug concentrations were measured before and after a 12-h incubation by liquid-chromatography-coupled mass spectrometry (LC–MS); details: 2 µM

| Compound | Bacterial Biotransformation [1] | Bacterial Biotransformation [2] | Bacterial Biotransformation [3] | Bacterial Biotransformation [4] | Bacterial Biotransformation [5] | Bacterial Biotransformation [6] | Bacterial Biotransformation [7] | Bacterial Biotransformation [8] | Bacterial Biotransformation [9] | Bacterial Biotransformation [10] | Bacterial Biotransformation [11] | Bacterial Biotransformation [12] | Bacterial Biotransformation [13] | Bacterial Biotransformation [14] | Bacterial Biotransformation [15] | Bacterial Biotransformation [16] | Bacterial Biotransformation [17] | Bacterial Biotransformation [18] | Bacterial Biotransformation [19] | Bacterial Biotransformation [20] |
| --- | --- | --- | --- | --- | --- | --- | --- | --- | --- | --- | --- | --- | --- | --- | --- | --- | --- | --- | --- | --- |
| CC(C)(Oc1ccc(CCNC(=O)c2ccc(Cl)cc2)cc1)C(=O)O [BEZAFIBRATE] | Compound metabolized | Compound metabolized | Compound metabolized | Compound metabolized | Compound metabolized | Compound NOT metabolized | Compound metabolized | Compound metabolized | Compound metabolized | Compound NOT metabolized | Compound metabolized | Compound metabolized | Compound metabolized | Compound metabolized | Compound metabolized | Compound metabolized | Compound metabolized | Compound metabolized | Compound metabolized |  |
| Br.CN(C)CCCC1(c2ccc(F)cc2)OCc2cc(C#N)ccc21 (configuration not stated) [CITALOPRAM HYDROBROMIDE] | Compound NOT metabolized | Compound NOT metabolized | Compound NOT metabolized | Compound NOT metabolized | Compound NOT metabolized | Compound NOT metabolized | Compound NOT metabolized | Compound NOT metabolized | Compound NOT metabolized | Compound NOT metabolized | Compound NOT metabolized | Compound NOT metabolized | Compound NOT metabolized | Compound NOT metabolized | Compound NOT metabolized | Compound NOT metabolized | Compound NOT metabolized | Compound NOT metabolized | Compound NOT metabolized |  |
| CN1CCC[C@@H]1CCO[C@](C)(c1ccccc1)c1ccc(Cl)cc1.O=C(O)/C=C/C(=O)O [CLEMASTINE FUMARATE] |  |  | Compound NOT metabolized | Compound metabolized | Compound NOT metabolized | Compound NOT metabolized |  | Compound NOT metabolized |  | Compound NOT metabolized | Compound metabolized | Compound NOT metabolized | Compound NOT metabolized | Compound NOT metabolized | Compound metabolized | Compound metabolized | Compound metabolized | Compound metabolized | Compound NOT metabolized | Compound NOT metabolized |
| CC[C@H](C)C(=O)O[C@H]1C[C@@H](C)C=C2C=C[C@H](C)[C@H](CC[C@@H]3C[C@@H](O)CC(=O)O3)[C@H]21 [LOVASTATIN] | Compound NOT metabolized | Compound NOT metabolized | Compound NOT metabolized | Compound metabolized | Compound NOT metabolized | Compound NOT metabolized |  | Compound metabolized |  | Compound metabolized | Compound NOT metabolized | Compound NOT metabolized | Compound NOT metabolized | Compound metabolized | Compound NOT metabolized | Compound NOT metabolized | Compound NOT metabolized | Compound metabolized | Compound NOT metabolized | Compound NOT metabolized |
| CC#C[C@]1(O)CC[C@H]2[C@@H]3CCC4=CC(=O)CCC4=C3[C@@H](c3ccc(N(C)C)cc3)C[C@@]21C [MIFEPRISTONE] | Compound NOT metabolized | Compound NOT metabolized | Compound NOT metabolized | Compound NOT metabolized | Compound NOT metabolized | Compound NOT metabolized |  | Compound NOT metabolized | Compound NOT metabolized | Compound NOT metabolized | Compound metabolized | Compound NOT metabolized | Compound NOT metabolized | Compound NOT metabolized | Compound NOT metabolized | Compound NOT metabolized | Compound NOT metabolized | Compound metabolized | Compound NOT metabolized | Compound NOT metabolized |
| COc1ccc2c(c1OC)C(=O)O[C@@H]2[C@H]1c2c(cc3c(c2OC)OCO3)CCN1C [NOSCAPINE] | Compound metabolized | Compound metabolized | Compound metabolized | Compound metabolized | Compound metabolized | Compound NOT metabolized | Compound NOT metabolized | Compound metabolized | Compound metabolized | Compound metabolized | Compound metabolized | Compound metabolized | Compound metabolized | Compound metabolized | Compound metabolized | Compound metabolized | Compound metabolized | Compound NOT metabolized | Compound metabolized |  |
| CCCc1nc(C(C)(C)O)c(C(=O)OCc2oc(=O)oc2C)n1Cc1ccc(-c2ccccc2-c2nnn[nH]2)cc1 [OLMESARTAN MEDOXOMIL] | Compound metabolized |  | Compound metabolized | Compound metabolized |  | Compound NOT metabolized |  | Compound metabolized | Compound metabolized | Compound metabolized | Compound metabolized |  | Compound metabolized | Compound metabolized | Compound metabolized | Compound metabolized |  | Compound metabolized | Compound metabolized | Compound metabolized |
| CC(C(=O)O)c1ccc2c(c1)Cc1cccnc1O2 (configuration not stated) [PRANOPROFEN] | Compound metabolized | Compound metabolized |  | Compound metabolized |  | Compound NOT metabolized |  | Compound NOT metabolized | Compound metabolized | Compound NOT metabolized | Compound metabolized | Compound NOT metabolized | Compound metabolized | Compound metabolized | Compound metabolized | Compound metabolized | Compound NOT metabolized | Compound metabolized | Compound metabolized | Compound NOT metabolized |
